Laboratory results reported in US11497751B2, “Modulators of Rho-associated protein kinase” (Redx Pharma PLC, priority 2018, dated 2022).

molecular target: T1, N-terminal 6His-tagged ROCK2 catalytic domain 11-552 (Homo sapiens, UniProt O75116); assay: ROCK2 binding activity: ROCK2 inhibition, ADP-Glo Kinase Assay; format: biochemical; conditions: 1.25 nM ROCK2, 100 μM long S6 peptide, 20 μM ATP; 1 hour pre-incubation; read-out: ADP-Glo kinase activity assay ROCK2 Category
T1 construct: N-terminal 6His-tagged ROCK2 catalytic domain 11-552; 6His (N); purchased Dundee University, UK; host or cells: baculovirus expression system
T1 sequence (O75116 11-552): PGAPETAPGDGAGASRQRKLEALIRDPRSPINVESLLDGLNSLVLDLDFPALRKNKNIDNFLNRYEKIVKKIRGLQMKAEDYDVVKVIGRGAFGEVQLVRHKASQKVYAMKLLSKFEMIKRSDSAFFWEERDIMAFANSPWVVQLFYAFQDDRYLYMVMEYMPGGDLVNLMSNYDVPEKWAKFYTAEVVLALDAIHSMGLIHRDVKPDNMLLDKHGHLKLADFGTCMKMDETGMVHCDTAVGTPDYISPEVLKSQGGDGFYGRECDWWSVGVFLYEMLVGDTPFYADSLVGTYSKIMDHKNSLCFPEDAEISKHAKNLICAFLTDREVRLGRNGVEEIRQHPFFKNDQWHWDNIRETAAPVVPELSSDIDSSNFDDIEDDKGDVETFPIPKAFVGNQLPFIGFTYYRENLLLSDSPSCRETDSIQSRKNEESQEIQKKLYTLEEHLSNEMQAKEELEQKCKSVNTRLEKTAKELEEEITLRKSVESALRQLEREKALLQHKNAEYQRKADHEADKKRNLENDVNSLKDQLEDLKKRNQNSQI
Method in brief: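 1.25 nM baculovirus-expressed ROCK2 pre-incubated 1 h with compound (1% DMSO), then 100 μM long S6 peptide and 20 μM ATP added for 1 h; 50 mM HEPES pH 7.5, 10 mM Mg acetate, 1 mM DTT. ADP-Glo luminescence; IC50 from four-parameter logistic fit.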

Row | Structure (SMILES) | IC50 [µM]
1 | CC(C)NC(=O)COc1ccc(-c2nc(Nc3ccc4[nH]ncc4c3)n(C)n2)cc1C(F)(F)F [Example 397] | < 0.3
2 | Cc1c(Nc2nc(-c3ccc(C(=O)NCC(F)(F)F)cc3)nn2C)ccc2[nH]ncc12 [Example 421] | < 0.3
3 | Cn1nc(-c2ccc(C(=O)NC3(C(F)(F)F)CC3)cc2)nc1Nc1ccc2[nH]ncc2c1C1CC1 [Example 281] | < 0.3
4 | CCc1c(Nc2nc(-c3ccc(C(=O)NCC(C)C)cc3)nn2C)ccc2[nH]ncc12 [Example 320] | < 0.3
5 | COc1cc(-c2nc(Nc3ccc4[nH]ncc4c3Cl)n(C)n2)ccc1OCC(=O)NC(C)(C)C [Example 204, N-tert-butyl-2-[4-[5-[(4-chloro-1H-indazol-5-yl)amino]-1-methyl-1,2,4-triazol-3-yl]-2-methoxy-phenoxy]acetamide] | < 0.3
6 | CCNC(=O)c1cc(F)c(-c2nc(Nc3ccc4[nH]ncc4c3Cl)n(C)n2)c(F)c1 [Example 359] | 0.3 to 3
7 | COc1cc(-c2nc(Nc3ccc4[nH]ncc4c3Cl)n(C)n2)ccc1OCC(=O)NC(C)(C)CO [Example 205] | < 0.3
8 | Cc1cc(OCC(=O)NC(C)C)ccc1-c1nnc(Nc2ccc3[nH]ncc3c2)[nH]1 [Example 26] | < 0.3
9 | COc1cc(-c2nc(Nc3ccc4[nH]ncc4c3Cl)n(CC(C)C)n2)ccc1C(=O)NCC(F)(F)F [Example 437] | < 0.3
10 | CN1CC(NC(=O)c2ccc(-c3nc(Nc4ccc5[nH]ncc5c4Cl)n(C)n3)cc2)C1 [Example 263] | 0.3 to 3
11 | COCCOc1cccc(-c2nc(Nc3ccc4[nH]ncc4c3Cl)n(C)n2)c1 [Example 85] | < 0.3
12 | COc1cc(-c2nc(Nc3ccc4[nH]ncc4c3C3CC3)n(C)n2)ccc1C(=O)NC(C)C [Example 273] | < 0.3
13 | COc1cc(-c2nc(Nc3ccc4[nH]ncc4c3)n[nH]2)ccc1OCC(=O)NC1CN(C(C)=O)C1 [Example 227, N-(1-acetylazetidin-3-yl)-2-[4-[5-(1H-indazol-5-ylamino)-4H-1,2,4-triazol-3-yl]-2-methoxy-phenoxy]acetamide] | 0.3 to 3
14 | Cn1nc(-c2cccc(C#N)c2)nc1Nc1ccc2[nH]ncc2c1Cl [Example 110] | 0.3 to 3
15 | COCc1cccc(-c2nc(Nc3ccc4[nH]ncc4c3Cl)n(C)n2)c1 [Example 113] | > 10
16 | CCC(=O)N1CCc2cc(-c3nc(Nc4ccc5[nH]ncc5c4C4CC4)n(C)n3)ccc2C1 [Example 391] | < 0.3
17 | Cn1nc(-c2ccncc2)nc1Nc1ccc2[nH]ncc2c1C1CC1 [Example 392] | 0.3 to 3
18 | COC(=O)c1ccc(-c2nc(Nc3ccc4[nH]ncc4c3Cl)n(C)n2)cc1OC [Example 118] | < 0.3
19 | CCNC(=O)c1ccc(-c2nc(Nc3ccc4[nH]ncc4c3Cl)n(C)n2)cc1C(F)(F)F [Example 345] | 3 to 10
20 | COc1cc(-c2nc(Nc3ccc4[nH]ncc4c3C)n(C3CC3)n2)ccc1C(=O)NCC(F)(F)F [Example 456] | < 0.3
21 | COc1cc(-c2nc(Nc3cnc4[nH]ncc4c3)n(C)n2)ccc1OCC(=O)NC(C)C [Example 433] | 0.3 to 3
22 | COCCn1nc(-c2ccc(C(=O)NC3CC3)cc2)nc1Nc1ccc2[nH]ncc2c1C1CC1 [Example 440] | < 0.3
23 | Cn1nc(-c2cccnc2)nc1Nc1ccc2[nH]ncc2c1Cl [Example 93] | 3 to 10
24 | CCc1c(Nc2nc(-c3ccc(C(=O)NC(C)C(F)(F)F)cc3)nn2C)ccc2[nH]ncc12 (centres unmarked) [Example 322] | < 0.3

Row | Structure (SMILES) | IC50 [µM]
25 | COc1ccc(-c2nc(Nc3ccc4[nH]ncc4c3Cl)n(C)n2)cc1Cl [Example 86] | < 0.3
26 | CC(=O)N1CCc2cc(-c3nc(Nc4ccc5[nH]ncc5c4C4CC4)n(C)n3)ccc2C1C (centres unmarked) [Example 248, 1-[6-[5-[(4-cyclopropyl-1H-indazol-5-yl)amino]-1-methyl-1,2,4-triazol-3-yl]-1-methyl-3,4-dihydro-1H-isoquinolin-2-yl]ethanone] | < 0.3
27 | CCOC(=O)c1cncc(-c2nc(Nc3ccc4[nH]ncc4c3Cl)n(C)n2)c1 [Example 90] | < 0.3
28 | CCc1c(Nc2nc(-c3ccc(C(=O)NC(C)C)c(OC)c3)nn2C)ccc2[nH]ncc12 [Example 314] | < 0.3
29 | COc1cc(-c2nc(Nc3ccc4[nH]ncc4c3Cl)n(C)n2)ccc1C(=O)NC#N [Example 199] | 0.3 to 3
30 | CCNC(=O)c1ccc(-c2nc(Nc3ccc4[nH]ncc4c3)n(C)n2)cc1C#N [Example 412] | < 0.3
31 | CCc1c(Nc2nc(-c3ccc(C(=O)NC4CCC(F)(F)C4)cc3)nn2C)ccc2[nH]ncc12 (centres unmarked) [Example 319] | < 0.3
32 | COCc1ccc(-c2nc(Nc3ccc4[nH]ncc4c3Cl)n(C)n2)cc1 [Example 63] | < 0.3
33 | Cn1nc(-c2ccc(CN)c(F)c2)nc1Nc1ccc2[nH]ncc2c1Cl [Example 128] | < 0.3
34 | COc1ccc(F)c(-c2nc(Nc3ccc4[nH]ncc4c3Cl)n(C)n2)c1 [Example 114] | < 0.3
35 | Cn1nc(-c2ccc(CNS(=O)(=O)c3cccc(Cl)c3)cc2)nc1Nc1ccc2[nH]ncc2c1Cl [Example 374] | < 0.3
36 | Cn1nc(-c2ccc(C(=O)NCC(F)(F)CO)cc2)nc1Nc1ccc2[nH]ncc2c1C1CC1 [Example 284] | < 0.3
37 | CCNC(=O)c1ccc(-c2nc(Nc3ccc4[nH]ncc4c3)n(C)n2)cc1C(F)(F)F [Example 398] | 3 to 10
38 | COc1cc(-c2nc(Nc3ccc4[nH]ncc4c3Cl)n(C)n2)ccc1C(=O)N1CCCC1 [Example 197] | 0.3 to 3
39 | Cn1nc(-c2ccc3c(c2)CCN(C(=O)C(C)(C)C)C3)nc1Nc1ccc2[nH]ncc2c1Cl [Example 371] | < 0.3
40 | Cn1nc(-c2ccc(C(=O)NC3CCC(F)(F)C3)cc2)nc1Nc1ccc2[nH]ncc2c1C1CC1 (centres unmarked) [Example 298] | < 0.3
41 | COc1cc(-c2nc(Nc3ccc4[nH]ncc4c3Cl)n(C(C)C)n2)ccc1C(=O)NC(C)C [Example 191] | < 0.3
42 | COc1cc(-c2nc(Nc3ccc4[nH]ncc4c3)n(CCN3CCOCC3)n2)ccc1OCC(=O)NC(C)C [Example 446] | < 0.3
43 | CCNC(=O)c1ccc(-c2nc(Nc3ccc4[nH]ncc4c3)n(C)n2)cc1 [Example 324] | < 0.3
44 | CN(C)c1ccc(-c2nc(Nc3ccc4[nH]ncc4c3Cl)n(C)n2)cn1 [Example 127] | 0.3 to 3
45 | CC(C)NC(=O)C(C)(C)Oc1ccc(-c2nnc(Nc3ccc4[nH]ncc4c3)[nH]2)cc1 [Example 19] | 0.3 to 3
46 | CC(C)NC(=O)COc1ccc(-c2nc(Nc3ccc4[nH]ncc4c3)n(C)n2)c(Cl)c1 [Example 407] | < 0.3
47 | COc1cc(-c2nc(Nc3ccc4[nH]ncc4c3Cl)n(C)n2)ccc1OCC(=O)NCC(C)O (centres unmarked) [Example 206] | < 0.3
48 | COC(=O)[C@@H](NC(=O)c1ccc(-c2nc(Nc3ccc4[nH]ncc4c3C3CC3)n(C)n2)cc1)C(C)C [Example 301] | < 0.3

Row | Structure (SMILES) | IC50 [µM]
49 | COc1cc(-c2nc(Nc3ccc4[nH]ncc4c3C)n(C)n2)ccc1C(=O)NC1CN(C)C1 [Example 328] | 3 to 10
50 | CC(C)NC(=O)COc1ccc(-c2nc(Nc3ccc4[nH]ncc4c3Cl)n(C)n2)c(C#N)c1 [Example 351] | < 0.3
51 | CC(C)NC(=O)COc1ccc(-c2nc(Nc3ccc4[nH]ncc4c3)n(C)n2)c(F)c1 [Example 405] | < 0.3
52 | CCC(C)NC(=O)c1ccc(-c2nc(Nc3ccc4[nH]ncc4c3C3CC3)n(C)n2)cc1 (centres unmarked) [Example 282] | < 0.3
53 | CC(C)NC(=O)COc1cc(F)c(-c2nc(Nc3ccc4[nH]ncc4c3Cl)n(C)n2)cc1F [Example 369] | < 0.3
54 | Cc1cc(-c2nc(Nc3ccc4[nH]ncc4c3)n(C)n2)ccc1OCC(=O)NC(C)C [Example 396] | < 0.3
55 | COC(=O)c1ccc(-c2nc(Nc3ccc4[nH]ncc4c3C3CC3)n(C)n2)cc1OC [Example 375] | < 0.3
56 | CC(C)NC(=O)COc1ccc(-c2nc(Nc3ccc4[nH]ncc4c3Cl)n(C)n2)cc1C#N [Example 349] | < 0.3
57 | CCNC1(COc2ccc(-c3nnc(Nc4ccc5[nH]ncc5c4)[nH]3)cc2)COC1 [Example 229, N-[5-[4-[[3-(ethylamino)oxetan-3-yl]methoxy]phenyl]-4H-1,2,4-triazol-3-yl]-1H-indazol-5-amine] | 0.3 to 3
58 | CN1CCc2cc(-c3nc(Nc4ccc5[nH]ncc5c4)n(C)n3)ccc2C1=O [Example 47] | < 0.3
59 | CCNC(=O)c1ccc(-c2nc(Nc3ccc4[nH]ncc4c3C)n(C)n2)cc1OC [Example 180] | < 0.3
60 | Cn1nc(-c2ccc(O)cc2)nc1Nc1ccc2[nH]ncc2c1Cl [Example 91] | < 0.3
61 | Cn1nc(-c2ccc3c(c2)CCN(C(=O)CNCC(F)(F)F)C3)nc1Nc1ccc2[nH]ncc2c1Cl [Example 239] | < 0.3
62 | CC(C)NC(=O)COc1ccc(-c2nnc(Nc3ccc4[nH]ncc4c3)[nH]2)cc1Cl [Example 38] | < 0.3
63 | CC(C)NC(=O)CN1CCOc2cc(-c3nc(Nc4ccc5[nH]ncc5c4Cl)n(C)n3)ccc21 [Example 58] | < 0.3
64 | COc1cc(-c2nc(Nc3ccc4[nH]ncc4c3Cl)n(C)n2)ccc1OCC(=O)NC1(CO)CC1 [Example 211] | < 0.3
65 | COC(=O)CNC(=O)c1ccc(-c2nc(Nc3ccc4[nH]ncc4c3C3CC3)n(C)n2)cc1 [Example 296] | 0.3 to 3
66 | CCNC(=O)c1ccc(-c2nc(Nc3ccc4[nH]ncc4c3Cl)n(C)n2)c(F)c1 [Example 356] | < 0.3
67 | COc1cc(-c2nc(Nc3ccc4[nH]ncc4c3Cl)n(C)n2)ccc1C(=O)NC1CCN(CC(F)(F)F)C1 (centres unmarked) [Example 363] | < 0.3
68 | Cn1nc(-c2ccc3c(c2)OCCO3)nc1Nc1ccc2[nH]ncc2c1Cl [Example 72] | 0.3 to 3
69 | Cn1nccc1-c1nc(Nc2ccc3[nH]ncc3c2Cl)n(C)n1 [Example 134] | 0.3 to 3
70 | CCc1c(Nc2nc(-c3ccc(C(=O)NCC(C)(C)C)cc3)nn2C)ccc2[nH]ncc12 [Example 321] | < 0.3
71 | Cn1nc(-c2ccc(C(=O)Nc3ccccc3)cc2)nc1Nc1ccc2[nH]ncc2c1Cl [Example 261] | < 0.3
